Experiment: method code SF-AS, from PMID: 2985094
Conditions: pH 7.4

CC(=O)OCCn1cnc2[nH]c(=O)n(C)c(=N)c21
logD: -1.2

CCSCCn1cnc2[nH]c(=O)n(C)c(=N)c21
logD: -0.13

Cn1c(=O)[nH]c2ncn(CCc3ccc(Br)cc3)c2c1=N
logD: 1.25

COCCn1cnc2nc(=O)n(C)c(N)c21
logD: -1.49

C=CCn1cnc2c(=N)n(C)c(=O)[nH]c21
logD: -0.57

COCCOCn1cnc2c(=N)n(C)c(=O)[nH]c21
logD: -1.52

CCSCCn1cnc2c(=N)n(C)c(=O)[nH]c21
logD: 0

C=COCCn1cnc2c(=N)n(C)c(=O)[nH]c21
logD: -0.24

Cn1c(=O)[nH]c2ncn(C)c2c1=N
logD: -2.27

COCn1cnc2[nH]c(=O)n(C)c(=N)c21
logD: -2.41

CCOCCn1cnc2[nH]c(=O)n(C)c(=N)c21
logD: -1.1

CCOCCn1cnc2c(N)n(C)c(=O)nc21
logD: -0.4

Cn1c(N)c2ncn(Cc3ccccc3)c2nc1=O
logD: 0.65

COCn1cnc2c(=N)n(C)c(=O)[nH]c21
logD: -1.22

Cn1c(=O)[nH]c2c(ncn2CCCC(=O)c2ccc(F)cc2)c1=N
logD: 0.44

Cn1c(=O)[nH]c2ncn(CCCC(=O)c3ccc(F)cc3)c2c1=N
logD: -1.04

Cn1c(N)c2c(ncn2Cc2ccccc2)nc1=O
logD: 0.07

C=COCCn1cnc2[nH]c(=O)n(C)c(=N)c21
logD: -0.78

COCCn1cnc2c(N)n(C)c(=O)nc21
logD: -0.96

COCn1cnc2nc(=O)n(C)c(N)c21
logD: -2.41

CCOC(=O)CCn1cnc2c(=N)n(C)c(=O)[nH]c21
logD: -0.45

From the SangsterLogP compilation
